Consider two compounds from paper PMC7026885, “Macrofilaricidal Benzimidazole–Benzoxaborole Hybrids as an Approach to the Treatment of River Blindness: Part 1. Amide Linked Analogs” (ACS Infectious Diseases, 2019).

Series [1] can be described thus: Metabolic stability in gerbil microsomes. The format is in vitro ADME. The procedure: We characterized the in vitro ADME properties of 8a in preparation for evaluation of this compound in our primary in vivo model in gerbils. […] We were pleased to find that 8a was able to kill 100% of both male and female worms in the gerbil peritoneum when dosed subcutaneously at 100 mg/kg/day for 14 days as a suspension in a nonsolubilizing HEC/Tween vehicle. […] The subsequent assessment of the pharmacokinetics of 8a from these two dosing paradigms provided an interesting observation that we believe to be important in understanding the PK–PD requirements for achieving efficacy in this animal model. […] We had made the same observation in a positive control group using flubendazole at a subcutaneous dose of 10 mg/kg/day for 5 days in the nonsolubilizing HEC/Tween vehicle, namely, that plasma levels of flubendazole were maintained above the in vitro IC50 (4 nM) for over 42 days, consistent with data reported in the literature.[43] […] Additionally, when plasma obtained from treated animals at necropsy was analyzed for 8a, we observed an outcome similar to that observed in the adult implantation model, e.g., that measurable levels were present at this time point in the subcutaneous-dosed groups but not in the orally dosed groups, weeks after administration of the drug. […]

The next series concerns Brugia pahangi. Kind of series: Brugia pahangi L3 injection in vivo model in gerbils. Particulars: B. pahangi, necropsy day 63, QD. The protocol:
(§1) We characterized the in vitro ADME properties of 8a in preparation for evaluation of this compound in our primary in vivo model in gerbils. […] We were pleased to find that 8a was able to kill 100% of both male and female worms in the gerbil peritoneum when dosed subcutaneously at 100 mg/kg/day for 14 days as a suspension in a nonsolubilizing HEC/Tween vehicle. […] The subsequent assessment of the pharmacokinetics of 8a from these two dosing paradigms provided an interesting observation that we believe to be important in understanding the PK–PD requirements for achieving efficacy in this animal model. […] We had made the same observation in a positive control group using flubendazole at a subcutaneous dose of 10 mg/kg/day for 5 days in the nonsolubilizing HEC/Tween vehicle, namely, that plasma levels of flubendazole were maintained above the in vitro IC50 (4 nM) for over 42 days, consistent with data reported in the literature.[43] […] We next examined 8a in two additional in vivo models, the first where L3 B. pahangi larvae were injected into the peritoneum of gerbils and allowed to develop into adult worms[45] and a second where gerbils were naturally infected by the filarial nematode Litomosoides sigmodontis.[46],[47] In both of these models, 8a was administered subcutaneously at 100 mg/kg for 14 days or orally at 100 mg/kg for 28 days as a suspension. […] Additionally, when plasma obtained from treated animals at necropsy was analyzed for 8a, we observed an outcome similar to that observed in the adult implantation model, e.g., that measurable levels were present at this time point in the subcutaneous-dosed groups but not in the orally dosed groups, weeks after administration of the drug. In a final L. sigmodontis experiment with 8a, we dosed the compound subcutaneously at 300 mg/kg for 7 days as a suspension.
(§2) Plates were incubated at 37 °C in a 5% CO2 incubator for 6 days, then molting was assessed visually using an inverted microscope. Molting was determined in each well by counting the presence of fourth stage larvae (L4s) and empty casts of L3s.
(§3) The percent inhibition of molting was calculated based on the number of treated larvae that were able to molt in comparison to the number of control larvae that had successfully molted. IC50 values were calculated using GraphPad Prism v6.0
(§4) (http://www.graphpad.com). See Bullman et al., PLoS Negl. Trop.
(§5) Adult Brugia malayi transplantation in vivo model procedure.
(§6) Gerbils (Meriones unguiculatus) were infected by transplantation of 10 male and 10 female adult Brugia malayi into the peritoneal cavity. Gerbils were acclimated for 7 days prior to treatment. Animals were dosed based on their body weight prior to each dosing. Animals were administered their doses at the same time each day and receive standard rodent laboratory diet and water ad libitum. Gerbils were humanely euthanized at the conclusion of each study. Peritoneal counts of male and female adult B. malayi and visual condition of the peritoneum were recorded.
Brugia pahangi L3 injection in vivo model procedure 8. […]
(Filariatech, Inc., Athens, GA). […] All gerbils were dosed in accordance with their body weight determined prior to each dosing. […]
The adult Brugia worms were recovered by opening the body cavity and washing the peritoneal cavity with 100 mL of phosphate buffered saline. Male and female worms were counted using a […]

For series [2], the system named is Onchocerca volvulus L3 larvae. Kind of series: Onchocerca volvulus L3 larval molting assay. Format: cell-based. Particulars: L3 molting assay, Table 1, read-out: O. volvulus IC50. The protocol: (§7) The first three analogs from the benzimidazole 5-carboxylic acid, namely 7a (from 6-aminobenzoxaborole), 8a (from 6-aminomethyl-3,3-dimethylbenzoxaborole), and 8b (from 3-aminomethylbenzoxaborole), were prepared and tested in an Onchocerca volvulus L3 larval molting assay[34],[35] and a mammalian G2/M arrest assay[36] to evaluate antifilarial activity and selectivity, respectively (Table 1). O. volvulus is the causative agent of river blindness, and the L3 molting assay is the only widely available and reproducible assay of this filariid, the target of novel macrofilaricidal drugs.[34],[35] Other animal models (e.g., Brugia in gerbils) recapitulate aspects of lymphatic filariasis and are also used as surrogate screens for O. volvulus infections. Of the three compounds tested, 8a emerged as the most attractive compound on the basis of potency and selectivity.
as §2, §3, §4, §5, §6
Brugia pahangi L3 injection in vivo model procedure 8.
Male gerbils (Meriones unguiculatus) approximately 6 weeks of age (50-60 g) were purchased from Charles Rivers (USA, Kingston K62 Gerbils) and infected by intraperitoneal injection with 200 Brugia pahangi third-stage larvae (L3) per animal
(Filariatech, Inc., Athens, GA). Gerbils were housed with no more than 5 animals per cage and maintained 9 months prior to treatment. All gerbils were dosed in accordance with their body weight determined prior to each dosing. Animals were […]

In a further series the test system is MDR1-MDCK monolayer. Kind of series: MDR1-MDCK monolayer permeability assay. Conditions: dog. The format is in vitro ADME. The protocol: as §1
In series [3] the test system is G2/M arrest (functional indicator of interaction with mammalian tubulin). Kind of series: mammalian G2/M arrest assay. The format is cell-based. Particulars: Table 1; read-out: G2/M arrest IC50. The protocol:
as §7
Similarly, changing the point of attachment on the benzoxaborole core from 6- to 5- to afford 8d was also accompanied by increased potency in both the O. volvulus and G2/M arrest assays.

Series [4] is described as follows: Plasma drug concentrations in treated infected gerbils. Conditions: for concentration at 42 day: day 42; for concentration at 28 day: day 28. Format: in vivo. The protocol: as §1
A further series concerns B. malayi/pahangi worms. The series is described as follows: ex vivo B. malayi/pahangi assay. The format is cell-based. Conditions: short (<7 days) exposure of worms.
In another series the test system is rat whole embryo culture. Also on record: method as in PMID 23287076, PMID 24994687. Conditions: cited from earlier work.
The next series has as its system pregnant female rats. Also on record: method as in PMID 23287076, PMID 24994687. Particulars: dosed to pregnant female rats; cited from earlier work.
Series [5] has as its system micronucleus. The arrangement: method as in PMID 26443851. Particulars: in vivo; cited from earlier work.
In series [6] the test system is micronucleus. The arrangement: method as in PMID 26443851. Conditions: in vitro; cited from earlier work.
[7] abbreviates: 100 mg/kg × 28 days, PO (suspension).

Each structure is given as a SMILES string. Like-named read-outs stand apart in the source and are kept apart here.

In general, microsomal CLint refers to the rate of metabolic loss divided by the concentration.

Take `COC(=O)Nc1nc2cc(C(=O)NCc3ccc4c(c3)B(O)OC4(C)C)ccc2[nH]1` [8a]: the microsomal CLint in series [1] is below 4 µL/min/mg. Besides, the adult worm reduction with Brugia pahangi (100 mg/kg × 14 days, SC (suspension)) was 100%; in the series on Brugia pahangi (setting [7]), 24%. For the same compound, the “animals with no worms” value in the series with Brugia pahangi (setting [7]) is reported as 0%. Also, the IC50 in series [2] was determined as 300 nM; in [3] it was 13000 nM. For the same compound, in the series on MDR1-MDCK monolayer, the “Papp with Pgp efflux inhibitor GF-120918” value is recorded as 2.7 × 10^–6 cm/s. In addition, the “drug concentration at necropsy” value was “<LOQ” in [4] (B. malayi model, necropsy day 42, 100 mg/kg × 28 days, QD, PO (suspension)) and “<LOQ” in [4] (B. pahangi model, necropsy day 63, 100 mg/kg × 28 days, QD, PO (suspension)). For the same compound, the concentration at 24 h after last dose came to 128 nM in [4] (gerbil, plasma, po, 100 mg/kg, B. malayi model, 100 mg/kg × 28 days, QD, PO (suspension), read-out: drug concentration 24 h after last dose); 130 nM in series [4] (gerbil, plasma, po, 100 mg/kg, B. pahangi model, 100 mg/kg × 28 days, QD, PO (suspension), read-out: drug concentration 24 h after last dose); 210 nM in [4] (gerbil, plasma, po, 100 mg/kg, L. sigmodontis model, 100 mg/kg × 28 days, QD, PO (suspension), read-out: drug concentration 24 h after last dose); 4100 nM in series [4] (gerbil, plasma, sc, 100 mg/kg, B. malayi model, 100 mg/kg × 14 days, QD, SC (suspension), read-out: drug concentration 24 h after last dose); 5870 nM in series [4] (gerbil, plasma, sc, 100 mg/kg, B. pahangi model, 100 mg/kg × 14 days, QD, SC (suspension), read-out: drug concentration 24 h after last dose); 9300 nM in series [4] (gerbil, plasma, sc, 100 mg/kg, L. sigmodontis model, 100 mg/kg × 14 days, QD, SC (suspension), read-out: drug concentration 24 h after last dose). Besides, the concentration at 24 h after last dose in series [4] (gerbil, plasma, sc, 150 mg/kg, B. malayi model, 150 mg/kg × 14 days, QD, SC (solution), read-out: drug concentration 24 h after last dose) was 2470 nM; in [4] (gerbil, plasma, sc, 300 mg/kg, L. sigmodontis model, 300 mg/kg × 7 days, QD, SC (suspension), read-out: drug concentration 24 h after last dose), 7850 nM. Moreover, the concentration at 42 day in series [4] (gerbil, plasma, po, 100 mg/kg, L. sigmodontis model, 100 mg/kg × 28 days, QD, PO (suspension), read-out: drug concentration interim) was found to be 6 nM; in series [4] (gerbil, plasma, sc, 300 mg/kg, L. sigmodontis model, 300 mg/kg × 7 days, QD, SC (suspension), read-out: drug concentration interim), 4640 nM. The concentration at 63 day (necropsy) stood at 3 nM in series [4] (gerbil, plasma, po, 100 mg/kg, L. sigmodontis model, necropsy day 63, 100 mg/kg × 28 days, QD, PO (suspension)); 1150 nM in series [4] (gerbil, plasma, sc, 100 mg/kg, B. pahangi model, necropsy day 63, 100 mg/kg × 14 days, QD, SC (suspension)); 69 nM in series [4] (gerbil, plasma, sc, 100 mg/kg, L. sigmodontis model, necropsy day 63, 100 mg/kg × 14 days, QD, SC (suspension)); 480 nM in [4] (gerbil, plasma, sc, 300 mg/kg, L. sigmodontis model, necropsy day 63, 300 mg/kg × 7 days, QD, SC (suspension)). Moreover, the concentration at 28 day in series [4] (gerbil, plasma, sc, 100 mg/kg, B. malayi model, 100 mg/kg × 14 days, QD, SC (suspension), read-out: drug concentration interim) was 5360 nM; in [4] (gerbil, plasma, sc, 150 mg/kg, B. malayi model, 150 mg/kg × 14 days, QD, SC (solution), read-out: drug concentration interim) it was 70 nM. Further, the concentration at 42 day (necropsy) in series [4] (gerbil, plasma, sc, 100 mg/kg, B. malayi model, necropsy day 42, 100 mg/kg × 14 days, QD, SC (suspension), read-out: drug concentration at necropsy) is 3380 nM; in series [4] (gerbil, plasma, sc, 150 mg/kg, B. malayi model, necropsy day 42, 150 mg/kg × 14 days, QD, SC (solution), read-out: drug concentration at necropsy), 10 nM. Further, the concentration at 21 day in [4] (gerbil, plasma, sc, 300 mg/kg, L. sigmodontis model, day 21, 300 mg/kg × 7 days, QD, SC (suspension), read-out: drug concentration interim) is 10600 nM. Besides, in the series on B. malayi/pahangi worms, the “killing of worms after short exposure” value is given as “not effective in killing the worms”.
As to `COC(=O)Nc1nc2cc(C(=O)c3ccc(F)cc3)ccc2[nH]1` [compound 1, Flubendazole, reference compound], the adult worm reduction in the series with Brugia pahangi (10 mg/kg × 5 days, SC) was found to be 100%/100%. Besides, the “animals with no worms” value in the series with Brugia pahangi (10 mg/kg × 5 days, SC) turned out to be 100%/100%. In addition, the embryotoxicity result with rat whole embryo culture and in the series on pregnant female rats was “potentially embryotoxic” throughout. The IC50 was 4 nM in [2] and 670 nM in [3]. Besides, the micronucleus test result in the series on micronucleus [5] and in the series on micronucleus [6] was “aneugen” throughout. In series [4] (gerbil, in vivo, sc, 10 mg/kg, drug concentration 24 h after last dose), the concentration at 24 h after last dose came out at 178 nM. This compound also registered a concentration at 42 day (necropsy) in [4] (gerbil, in vivo, sc, 10 mg/kg, drug concentration at necropsy) of 43 nM. Further, in [4] (gerbil, in vivo, sc, 10 mg/kg/day), the “time plasma levels maintained above in vitro IC50 (4 nM)” value is on record as “over 42 days”. Moreover, in the series with B. malayi/pahangi worms, the “killing of worms after short exposure” value is “not effective in killing the worms”.
